Experimental data published in patent US20220371989A1, “N-ACYL-TYROSINE DERIVATIVES AND USES THEREOF” (Sederma, priority 2019, published 2022).
“Also recorded” adds a separate entry of the source.

What was measured:
Assay type in all cases: cell-based
[1] = test system: Enterococcus faecium EF379 (VRE); test: microbroth dilution antimicrobial assay, E. faecium EF379 (VRE); details: for IC50: Enterococcus faecium EF379 (VRE), 22 h, 37° C., triplicate, read-out: IC50 of N-Acyltyrosines
Excerpt: (§1) α-Methylation of N-pamitoyltyrosines confers antimicrobial activity. Compound (1) was initially screened for antimicrobial activity against the following panel of pathogenic bacteria and fungi in Table 1 in microbroth dilution assays: methicillin-resistant Staphylococcus aureus (MRSA), Staphylococcus warneri, vancomycin-resistant Enterococcus faecium (VRE), Pseudomonas aeruginosa, Proteus vulgaris and Candida albicans. […] The inventors were aware of no reports on anti-Staphylococcus activity of N-acyltyrosines or on anti-Enterococcal activity of any N-acylated amino acid; thus, it was hypothesized that the α-methyl substituent of compound (1) may be a key component of the antimicrobial pharmacophore of compound 1, may confer Staphylococcus inhibitory activity to N-acyltyrosines, and/or perhaps may play a role in their Enterococcus activity.
(§2) To test the proposed structure-activity relationship (SAR), a structural analogue compound (2) of compound (1) was synthesized that lacks an a-methyl substituent, and compound (2) was tested for antimicrobial activity in parallel with compound (1). Analogues (3) and (4) were also synthesized and assayed to further support a potential SAR involving the O-methyl substituent (FIG. 16-21). To thoroughly characterize the anti-Enterococcal activity of compounds (1)-(4), five veterinary clinical isolates from veterinary cases (in addition to VRE EF379) were obtained for this study. All five clinical isolates were classified as vancomycin-susceptible.
(§3) Evaluation of antimicrobial activity and cytotoxicity. The following five Enterococcus spp. were isolated from clinical specimens at the Atlantic Veterinary College (AVC) by the AVC Diagnostic Services Bacteriology Laboratory. Isolates were identified using the Bruker microflex LT MALDI-TOF with MBT Compass version 4.179. The direct colony transfer method was used with the Bruker Matrix HCCA (α-cyano-4-hydroxycinnamic acid) overlay, following manufacturer guidelines. Score values between 2.00 and 3.00 were considered high confidence identifications. The following isolates (with source species) were identified: E. faecium 15337 (feline), E. faecalis 16371 (canine), E. gallinarum 20993 (erinaceine), E. casseliflavus 15984 (equine) and E. hirae 17446 (avine). Antimicrobial activity of 1-4 was evaluated against all five clinical Enterococcus isolates in addition to methicillin-resistant Staphylococcus aureus ATCC 33591 (MRSA), S. warneri ATCC 17917, vancomycin-resistant Enterococcus faecium EF379 (VRE), Pseudomonas aeruginosa ATCC 14210, Proteus vulgaris ATCC 12454 and Candida albicans ATCC 14035. All testing was carried out in triplicate according to the Clinical Laboratory Standards Institute testing standards in a 96-well plate microbroth dilution assay as previously described.^14 Optical density was measured using a Thermo Scientific Varioskan Flash plate reader at 600 nm, recording at time zero and then again after incubation for 22 h (37° C.) to determine percent growth inhibition. Cytotoxicity was evaluated against Vero kidney cell line from African green monkey (Cercopithecus aethiops), MCF7 human breast adenocarcinoma cells (ATCC HTB-22), human breast adenocarcinoma cells (ATCC HTB-26) and HCT-116 human colorectal carcinoma cells (ATCC CCL-247). All assays were carried out as described previously.^14 Fluorescence was measured using a Thermo Scientific Varioskan Flash plate reader at 560/12 excitation, 590 nm emission both at time zero and 4 h after alamarBlue (Invitrogen) addition. For both antimicrobial and cytotoxicity data, growth inhibition was expressed as a percentage and plotted against the logarithm of concentration.

[2] = test system: Enterococcus faecium 15337; test: microbroth dilution antimicrobial assay, E. faecium 15337; details: for IC50: Enterococcus faecium 15337, microbroth dilution, 22 h, 37° C., triplicate, read-out: IC50 of N-Acyltyrosines
Method: as §2, §3

[3] = test system: Enterococcus faecalis 16371; test: microbroth dilution antimicrobial assay, E. faecalis 16371; details: for IC50: Enterococcus faecalis 16371, microbroth dilution, 22 h, 37° C., triplicate, read-out: IC50 of N-Acyltyrosines
Method: as §2, §3

[4] = test system: Enterococcus gallinarum 20993; test: microbroth dilution antimicrobial assay, E. gallinarum 20993; details: for IC50: Enterococcus gallinarum 20993, microbroth dilution, 22 h, 37° C., triplicate, read-out: IC50 of N-Acyltyrosines
Method: as §2, §3

[5] = test system: Enterococcus casseliflavus 15984; test: microbroth dilution antimicrobial assay, E. casseliflavus 15984; details: for IC50: Enterococcus casseliflavus 15984, microbroth dilution, 22 h, 37° C., triplicate, read-out: IC50 of N-Acyltyrosines
Method: as §2, §3

[6] = test system: Enterococcus hirae 17446; test: microbroth dilution antimicrobial assay, E. hirae 17446; details: for IC50: Enterococcus hirae 17446, microbroth dilution, 22 h, 37° C., triplicate, read-out: IC50 of N-Acyltyrosines
Method: as §2, §3

[7] = test system: Staphylococcus aureus ATCC 33591 (MRSA); test: microbroth dilution antimicrobial assay, S. aureus ATCC 33591 (MRSA); details: for growth inhibition (in words): S. aureus (MRSA); for growth inhibition (in words) / IC50: microbroth dilution; for IC50: Staphylococcus aureus ATCC 33591 (MRSA), 22 h, 37° C., triplicate, read-out: IC50 of N-Acyltyrosines; for growth at the highest concentration tested (in words): 128 μg/mL
Excerpt: as §1, §3

[8] = test system: Staphylococcus warneri ATCC 17917; test: microbroth dilution antimicrobial assay, S. warneri ATCC 17917; details: for IC50: ATCC17917, Staphylococcus warneri ATCC 17917, 22 h, 37° C., triplicate, read-out: IC50 of N-Acyltyrosines; for IC50 / growth inhibition (in words): microbroth dilution; for growth at the highest concentration tested (in words): 128 μg/mL
Excerpt: as §1, §3

[9] = test system: Pseudomonas aeruginosa ATCC 14210; test: microbroth dilution antimicrobial assay, P. aeruginosa ATCC 14210
Excerpt: (§4) α-Methylation of N-pamitoyltyrosines confers antimicrobial activity. Compound (1) was initially screened for antimicrobial activity against the following panel of pathogenic bacteria and fungi in Table 1 in microbroth dilution assays: methicillin-resistant Staphylococcus aureus (MRSA), Staphylococcus warneri, vancomycin-resistant Enterococcus faecium (VRE), Pseudomonas aeruginosa, Proteus vulgaris and Candida albicans. […]
(§5) Evaluation of antimicrobial activity and cytotoxicity. […] Antimicrobial activity of 1-4 was evaluated against all five clinical Enterococcus isolates in addition to methicillin-resistant Staphylococcus aureus ATCC 33591 (MRSA), S. warneri ATCC 17917, vancomycin-resistant Enterococcus faecium EF379 (VRE), Pseudomonas aeruginosa ATCC 14210, Proteus vulgaris ATCC 12454 and Candida albicans ATCC 14035. All testing was carried out in triplicate according to the Clinical Laboratory Standards Institute testing standards in a 96-well plate microbroth dilution assay as previously described.^14 Optical density was measured using a Thermo Scientific Varioskan Flash plate reader at 600 nm, recording at time zero and then again after incubation for 22 h (37° C.) to determine percent growth inhibition. […] For both antimicrobial and cytotoxicity data, growth inhibition was expressed as a percentage and plotted against the logarithm of concentration.

[10] = test system: Proteus vulgaris ATCC 12454; test: microbroth dilution antimicrobial assay, Proteus vulgaris ATCC 12454
Excerpt: as §4, §5

[11] = test system: Candida albicans ATCC 14035; test: microbroth dilution antimicrobial assay, Candida albicans ATCC 14035
Excerpt: as §4, §5

IC50 ([1]; microbroth dilution)	IC50 [2]	IC50 [3]	IC50 [4]	IC50 [5]	IC50 [6]	IC50 [7]	IC50 [8]	SMILES	growth inhibition (in words) [7]	growth inhibition (in words) ([8]; S. warneri)	growth at the highest concentration tested (in words) ([7]; S. aureus)	growth at the highest concentration tested (in words) ([8]; S. warneri)	other results
1.6 µM	7.2 µM	7.4 µM	4 µM	3.1 µM	4.1 µM	> 286 µM	> 286 µM	CCCCCCCCCCCCCCCC(=O)N[C@@](C)(Cc1ccc(OC)cc1)C(=O)O [Compound 1, N-Palmitoyl-α,O-dimethyl-L-tyrosine]	Growth inhibition was observed; also recorded: inhibited	Growth inhibition was observed			growth inhibition (in words) ([1]; VRE, initial screen, microbroth dilution): Growth inhibition was observed; Incomplete growth inhibition ([7]; S. aureus, 8-128 μg/mL (footnote b)): < 75%; concentration at which maximum inhibition was achieved ([7]; S. aureus, inhibition incomplete, plateaued at higher concentrations (FIG. 25)): 8 µg/mL; Incomplete growth inhibition ([8]; S. warneri, from 2-64 μg/mL (footnote b)): < 50%; IC50 ([9]; ATCC14210, Pseudomonas aeruginosa ATCC 14210, microbroth dilution, read-out: IC50 of N-Acyltyrosines): > 286 µM; antimicrobial activity (in words) ([9]; Gram-negative pathogen Pseudomonas aeruginosa, initial screen): no activity was observed; IC50 ([10]; ATCC12454, Proteus vulgaris ATCC 12454, microbroth dilution, read-out: IC50 of N-Acyltyrosines): > 286 µM; antimicrobial activity (in words) ([10]; Gram-negative pathogen Proteus vulgaris, initial screen): no activity was observed; IC50 ([11]; ATCC14035, Candida albicans ATCC 14035, microbroth dilution, read-out: IC50 of N-Acyltyrosines): > 286 µM; antimicrobial activity (in words) ([11]; fungal pathogen Candida albicans, initial screen): no activity was observed
13.3 µM	10.5 µM	> 295 µM	71.5 µM	10.7 µM	3.6 µM	> 295 µM	> 295 µM	CCCCCCCCCCCCCCCC(=O)N[C@@H](Cc1ccc(OC)cc1)C(=O)O [Compound 2, N-Palmitoyl-O-methyl-L-tyrosine]			unaffected	unaffected	Enterococcus inhibitory activity (in words) ([3]; E. faecalis 16371, FIG. 24 legend): inactive
5.3 µM	9.9 µM	9.2 to 18.4 µM	4.6 µM	9 µM	4.6 µM	9.2 to 18.4 µM	9.2 to 18.4 µM	CCCCCCCCCCCCCCCC(=O)N[C@@](C)(Cc1ccc(O)cc1)C(=O)O [Compound 3, N-Palmitoyl-α-methyl-L-tyrosine]	inhibited	inhibited			
10.7 µM	> 305 µM	77.1 µM	146 µM	32.1 µM	5.6 µM	> 305 µM	> 305 µM	CCCCCCCCCCCCCCCC(=O)N[C@@H](Cc1ccc(O)cc1)C(=O)O [Compound 4, N-Palmitoyl-L-tyrosine]			unaffected	unaffected	Enterococcus inhibitory activity (in words) ([2]; E. faecium 15337, FIG. 24 legend): inactive; Incomplete growth inhibition ([2]; E. faecium 15337, at all tested concentrations (footnote b)): < 50
								CO[C@H]1/C=C/O[C@@]2(C)Oc3c(C)c(O)c4c(O)c(c(/C=N/N5CCN(C)CC5)c(O)c4c3C2=O)NC(=O)/C(C)=C\C=C\[C@H](C)[C@H](O)[C@@H](C)[C@@H](O)[C@@H](C)[C@H](OC(C)=O)[C@@H]1C [RIF, reference compound]					IC50 of positive control antibiotic ([1]; E. faecium EF379, positive control): 4 µg/mL; IC50 of positive control antibiotic ([2]; E. faecium 15337, positive control): > 16 µg/mL; IC50 of positive control antibiotic ([3]; E. faecalis 16371, positive control): > 8 µg/mL; IC50 of positive control antibiotic ([4]; E. gallinarum 20993, positive control): 3 µg/mL; IC50 of positive control antibiotic ([5]; E. casseliflavus 15984, positive control): 0.9 µg/mL; IC50 of positive control antibiotic ([6]; E. hirae 17446, positive control): < 0.5 µg/mL
								CN[C@H](CC(C)C)C(=O)N[C@H]1C(=O)N[C@@H](CC(N)=O)C(=O)N[C@H]2C(=O)N[C@H]3C(=O)N[C@H](C(=O)N[C@H](C(=O)O)c4cc(O)cc(O)c4-c4cc3ccc4O)[C@H](O)c3ccc(c(Cl)c3)Oc3cc2cc(c3O[C@@H]2O[C@H](CO)[C@@H](O)[C@H](O)[C@H]2O[C@H]2C[C@](C)(N)[C@H](O)[C@H](C)O2)Oc2ccc(cc2Cl)[C@H]1O [VAN, reference compound]					IC50 of positive control antibiotic ([7]; S. aureus ATCC 33591, positive control): 2 µg/mL; IC50 of positive control antibiotic ([8]; S. warneri, positive control): < 0.125 µg/mL
